Laboratory results as given in patent publication US5817669A, “Compounds, processes for the preparation thereof and anti-tumor agents” (Dainippon Pharmaceutical Co., Ltd., priority 1994, dated 1998).
Converted amounts (≈) assume the structure as drawn. Read-outs that look alike come from different tables or passages of the source.

Assays:
[1] = tested on: colon 26 murine tumor cells; test: Tumor growth inhibition effect on colon 26 murine tumor cells implanted mice; format: in vivo, SLC: CDF1 mice; settings: Mus musculus, Colon 26, 504 h, ip, days 1-9, day 21 or 22, read-out: Tumor growth inhibition rate IR (%); for inhibition in vivo at 1.56 mg/kg: 1.56 mg/kg once a day; for inhibition in vivo at 3.13 mg/kg: 3.13 mg/kg once a day
Procedure: A 2% brei of colon 26 murine tumor cells was intracutaneously implanted each 0.1 ml in the abdominal part of SLC: CDF1 female mice (7 to 9 weeks old, 7 animals per one group). […] The obtained solutions were intraperitoneally (ip) administered each 0.2 ml once a day, from the day (1st day) following the implantation to the 9th day. On the 21st or 22nd day after the implantation, tumor weight was estimated from tumor diameters, and thus, the tumor growth inhibition rate (IR %) of the drug administered group in comparison with the control group was calculated according to the following equation. IR (%)=[1-{(MTW in the treated group)/(MTW in the control group)}]×10 0 MTW: mean tumor weight

[2] = tested on: KB human nasopharynx cancer; test: In vitro anti-tumor activity against KB human nasopharynx cancer (MTT); format: cell-based; settings: KB, 72 h, MTT, read-out: IC50
Procedure: (§1) A culture medium containing 500 to 2,000 human cancer cells was put in an amount of 0.1 ml in each well of 96-well plate, and the cells were cultured for 20 hours under a condition of 37° C. and 5% carbon dioxide gas in air. After the culturing, a solution of test compounds of predetermined concentration was added, and then, the cells were cultured for further 72 hours. After the culturing, an MTT (5 mg/ml) solution was added in an amount of 0.01 ml in the respective wells, and the cells were cultured for further 4 hours. The supernatants of the culture medium were removed by suction, and then, 0.1 ml of dimethyl sulfoxide was put in respective well to dissolve the formed formazan, and, moreover, 0.1 ml of dimethyl sulfoxide was added.

[3] = tested on: WiDr human colorectal cancer; test: In vitro anti-tumor activity against WiDr human colorectal cancer (MTT); format: cell-based; settings: 72 h, MTT, read-out: IC50
Procedure: as §1

[4] = tested on: murine P388 lymphocytic leukemia cells; test: Increases in life span of mice implanted with murine P388 lymphocytic leukemia cells; format: in vivo, SLC: BDF1 mice; settings: ip; for ILS at 50 mg/kg / ILS at 12.5 mg/kg / ILS at 3.13 mg/kg / ILS at 6.25 mg/kg / ILS at 25 mg/kg: Mus musculus, P388, ip, 720 h
Procedure: 1×10^6 murine P388 lymphocytic leukemia cells were intraperitoneally implanted in each of SLC: BDF1 mice (8 to 10 weeks old, female, 7 animals per one group). A test compound (drug) was either dissolved in 0.1 N--NaOH or suspended in 0.4% carboxymethylcellulose solution, and the resultant solution or suspension was diluted with distilled water or 0.4% carboxymethylcellulose solution so as to give predetermined concentrations for administration. The obtained solution was intraperitoneally (ip) administered twice, namely on the day following the implantation (1st day) and the 5th day, each 0.2 ml. The life and death of the mice were observed over a period of 30 days, and the median survival time (hereinafter referred to as MST) was determined for each group, and, thus, the increase in life span (ILS; %) was calculated according to the following equation:
ILS (%)=[{(MST of the test group)/(MST of the control group)}-1]×100
Drug effect was judged in the following manner, according to the criterion of U.S. National Cancer Institute (NCI):
ILS=75% or higher: ++ (remarkably effective);
20 to 74%: + (effective);
19% or lower: - (ineffective)

[5] = tested on: HMV2 human melanoma; test: In vitro anti-tumor activity against HMV-2 human melanoma (MTT); format: cell-based; settings: HMV-2, 72 h, MTT, read-out: IC50
Procedure: as §1

[6] = tested on: A427 human lung cancer; test: In vitro anti-tumor activity against A-427 human lung cancer (MTT); format: cell-based; settings: A-427, 72 h, MTT, read-out: IC50
Procedure: as §1

[7] = tested on: MKN45 human stomach cancer; test: In vitro anti-tumor activity against MKN45 human stomach cancer (MTT); format: cell-based; settings: MKN-45, MKN45, 72 h, MTT, read-out: IC50
Procedure: as §1

[8] = tested on: AZ521 human stomach cancer; test: In vitro anti-tumor activity against AZ-521 human stomach cancer (MTT); format: cell-based; settings: AZ-521, 72 h, MTT, read-out: IC50
Procedure: as §1

[9] = tested on: C33A human cervix cancer; test: In vitro anti-tumor activity against C-33A human cervix cancer (MTT); format: cell-based; settings: C-33A, 72 h, MTT, read-out: IC50
Procedure: as §1

[10] = tested on: murine P388 lymphocytic leukemia cells; test: In vitro anti-tumor activity against murine P388 lymphocytic leukemia cells (MTT, 72 h); format: cell-based; settings: Mus musculus; murine P388 cells, 72 h, MTT; read-out: IC50 (50% proliferation inhibitory concentration)
Procedure: Test compounds were tested for anti-tumor activity according to MTT [3-(4,5-dimethylthiazol-2-yl)-2,5-diphenyltetrazolium bromide] method, using murine P388 lymphocytic leukemia cells. […] The culture medium was centrifuged (4° C., 2,000 rpm for 20 minutes), and thus, the supernatants were removed by suction. Then, 0.1 ml of dimethyl sulfoxide was put in each well to dissolve the formed formazan, and, subsequently, another 0.1 ml of dimethyl sulfoxide was added. The absorbance (OD) of each of the obtained solutions was measured by use of Multiskan Bichromatic (main wavelength 570 nm, sub-wavelength 690 nm). […] IC50 :μg/ml) were calculated by the least squares method.

[11] = NCI criterion, read-out: Evaluation
[12] = days 1 and 5, in solution, read-out: ILS (%) (in solution)
[13] = days 1 and 5, in suspension, read-out: ILS (%) (in suspension)
[14] = NCI criterion, 12.5 mg/kg, read-out: Evaluation
[15] = 12.5 mg/kg, days 1 and 5, in suspension, read-out: ILS (%) (in suspension)
[16] = NCI criterion, 3.13 mg/kg, read-out: Evaluation
[17] = 3.13 mg/kg, days 1 and 5, in suspension, read-out: ILS (%) (in suspension)

Row | IC50 [2] [µg/mL] | IC50 [3] [µg/mL] | IC50 [5] [µg/mL] | IC50 [6] [µg/mL] | IC50 [7] [µg/mL] | IC50 [8] [µg/mL] | IC50 [9] [µg/mL] | IC50 [10] [µg/mL] | SMILES | inhibition in vivo at 1.56 mg/kg [1] [%] | ILS at 50 mg/kg [4, 11] [%] | ILS at 50 mg/kg [4, 12] [%] | ILS at 50 mg/kg [4, 13] [%] | inhibition in vivo at 3.13 mg/kg [1] [%] | ILS at 12.5 mg/kg [4, 14] [%] | ILS at 12.5 mg/kg [4, 15] [%] | ILS at 3.13 mg/kg [4, 16] [%] | ILS at 3.13 mg/kg [4, 17] [%] | other results
1 | 0.125 (≈ 0.324 µM) | 0.295 (≈ 0.765 µM) | 0.265 (≈ 0.688 µM) | 0.146 (≈ 0.379 µM) | 0.164 (≈ 0.425 µM) | 0.101 (≈ 0.262 µM) | 0.131 (≈ 0.34 µM) | 0.0195 (≈ 0.0506 µM) | C[C@@H]1CN(c2ccc3c(=O)c(C(=O)O)cn(-c4nccs4)c3n2)C[C@@]1(C)N (relative stereo) [Compound 12] | – | – | – | – | 48 | > 75 | 75 | – | – | inhibition in vivo at 6.25 mg/kg ([1]; 6.25 mg/kg once a day): 84%
2 | 0.179 | 0.264 | 0.214 | 0.0749 | 0.144 | 0.0307 | 0.161 | 0.0309 | CN[C@@H]1CN(c2ccc3c(=O)c(C=O)cn(-c4nccs4)c3n2)C[C@H]1OC.Cl (relative stereo) [Compound 11, 3-Formyl-1,4-dihydro-7-(trans-3-methoxy-4-methylamino-1-pyrrolidinyl)-4-oxo-1-(2-thiazolyl)-1,8-naphthyridine hydrochloride] | 58 | > 75 | – | 225 | – | > 75 | 150 | > 75 | 88 | inhibition in vivo at 0.78 mg/kg ([1]; 0.78 mg/kg once a day): 50%
3 | 0.19 (≈ 0.512 µM) | 0.797 (≈ 2.15 µM) | 0.386 (≈ 1.04 µM) | 0.153 (≈ 0.412 µM) | 0.468 (≈ 1.26 µM) | 0.292 (≈ 0.786 µM) | 0.247 (≈ 0.665 µM) | 0.0192 (≈ 0.0517 µM) | CC1(N)CCN(c2ccc3c(=O)c(C(=O)O)cn(-c4nccs4)c3n2)C1 (stereo not drawn) [Compound 10] | – | > 75 | > 275 | – | 74 | > 75 | 113 | 20 to 74 | 50 | ILS at 6.25 mg/kg ([4]; NCI criterion, 6.25 mg/kg, read-out: Evaluation): > 75%; ILS at 25 mg/kg ([4]; NCI criterion, 25 mg/kg, read-out: Evaluation): > 75%; ILS at 3.13 mg/kg ([4]; 3.13 mg/kg, days 1 and 5, in solution, read-out: ILS (%) (in solution)): 63%; ILS at 6.25 mg/kg ([4]; 6.25 mg/kg, days 1 and 5, in solution, read-out: ILS (%) (in solution)): 75%; ILS at 12.5 mg/kg ([4]; 12.5 mg/kg, days 1 and 5, in solution, read-out: ILS (%) (in solution)): 100%; ILS at 25 mg/kg ([4]; 25 mg/kg, days 1 and 5, in solution, read-out: ILS (%) (in solution)): 125%
4 | 0.126 (≈ 0.3 µM) | 0.322 (≈ 0.768 µM) | 0.181 (≈ 0.432 µM) | 0.145 (≈ 0.346 µM) | 0.148 (≈ 0.353 µM) | 0.0798 (≈ 0.19 µM) | 0.132 (≈ 0.315 µM) | 0.0344 (≈ 0.082 µM) | CN[C@@H]1CN(c2ccc3c(=O)c(C(=O)O)cn(-c4nc(F)cs4)c3n2)C[C@H]1OC (relative stereo) [Compound 16] | – | > 75 | – | 238 | 77 | > 75 | 138 | 20 to 74 | 38 | –
5 | 0.0604 (≈ 0.145 µM) | 0.259 (≈ 0.622 µM) | 0.119 (≈ 0.286 µM) | 0.0696 (≈ 0.167 µM) | 0.0964 (≈ 0.231 µM) | 0.0288 (≈ 0.0692 µM) | 0.0854 (≈ 0.205 µM) | 0.0157 (≈ 0.0377 µM) | CN[C@@H]1CN(c2cc(N)c3c(=O)c(C(=O)O)cn(-c4nccs4)c3n2)C[C@H]1OC (relative stereo) [Compound 15] | – | > 75 | – | 238 | 68 | > 75 | 200 | > 75 | 88 | –

Row | SMILES | IC50 [2] [µg/mL] | IC50 [3] [µg/mL] | IC50 [5] [µg/mL] | IC50 [6] [µg/mL] | IC50 [7] [µg/mL] | IC50 [8] [µg/mL] | IC50 [9] [µg/mL] | IC50 [10] [µg/mL] | inhibition in vivo at 1.56 mg/kg [1] [%] | ILS at 50 mg/kg [4, 11] [%] | ILS at 50 mg/kg [4, 12] [%] | ILS at 50 mg/kg [4, 13] [%] | inhibition in vivo at 3.13 mg/kg [1] [%] | ILS at 12.5 mg/kg [4, 14] [%] | ILS at 12.5 mg/kg [4, 15] [%] | ILS at 3.13 mg/kg [4, 16] [%] | ILS at 3.13 mg/kg [4, 17] [%] | other results
6 | CN[C@@H]1CN(c2ccc3c(=O)c(C(=O)O)cn(-c4nccs4)c3n2)C[C@H]1OC.Cl (single isomer, unassigned) [Compound 1-3, (-)-1,4-Dihydro-7-(trans-3-methoxy-4-methylamino-1-pyrrolidinyl)-4-oxo-1-(2-thiazolyl)-1,8-naphthyridine-3-carboxylic acid hydrochloride] | 0.208 | 0.503 | 0.234 | 0.107 | 0.222 | 0.11 | 0.148 | 0.02 | 50 | > 75 | > 275 | 200 | – | – | – | – | – | inhibition in vivo at 2.21 mg/kg ([1]; 2.21 mg/kg once a day): 75%; Evaluation ([4]; NCI criterion, 3.13 mg/kg): + (20 to 74%: + (effective)); Evaluation ([4]; NCI criterion, 6.25 mg/kg): ++ (ILS=75% or higher: ++ (remarkably effective)); Evaluation ([4]; NCI criterion, 12.5 mg/kg): ++ (ILS=75% or higher: ++ (remarkably effective)); Evaluation ([4]; NCI criterion, 25 mg/kg): ++ (ILS=75% or higher: ++ (remarkably effective)); ILS (%) (in solution) ([4]; 3.13 mg/kg, days 1 and 5, in solution): 63%; ILS (%) (in suspension) ([4]; 3.13 mg/kg, days 1 and 5, in suspension): 63%; ILS (%) (in solution) ([4]; 6.25 mg/kg, days 1 and 5, in solution): 88%; ILS (%) (in solution) ([4]; 12.5 mg/kg, days 1 and 5, in solution): 138%; ILS (%) (in suspension) ([4]; 12.5 mg/kg, days 1 and 5, in suspension): 125%; ILS (%) (in solution) ([4]; 25 mg/kg, days 1 and 5, in solution): 200%
